Experimental data published in publication PMC10866072, “Design, synthesis, molecular modelling and biological evaluation of novel 6-amino-5-cyano-2-thiopyrimidine derivatives as potent anticancer agents against leukemia and apoptotic inducers” (Journal of Enzyme Inhibition and Medicinal Chemistry, 2024).

Key:
[1] = tested on: MDA-MB-231/ATCC; assay type: cell-based; details: Homo sapiens, one dose 10^-5 M, 48 h
[2] = tested on: HCT-15; assay type: cell-based; details: Homo sapiens, one dose 10^-5 M, 48 h, read-out: % growth
[3] = tested on: full NCI 60 cell lines panel; details: Homo sapiens, 60 cell, 48 h, read-out: Mean % growth
[4] = tested on: SNB-19; assay type: cell-based; details: Homo sapiens, one dose 10^-5 M, 48 h, read-out: % growth
[5] = tested on: HCT-116; assay type: cell-based; details: Homo sapiens, one dose 10^-5 M, 48 h, read-out: % growth
[6] = tested on: SN12C; assay type: cell-based, human; details: Homo sapiens, one dose 10^-5 M, 48 h
[7] = tested on: SF-539; assay type: cell-based; details: Homo sapiens, one dose 10^-5 M, 48 h
[8] = tested on: HL-60(TB); assay type: cell-based; details: Homo sapiens, one dose 10^-5 M, 48 h
[9] = tested on: SF-268; assay type: cell-based; details: Homo sapiens, one dose 10^-5 M, 48 h, read-out: % growth
[10] = tested on: SK-MEL-2; assay type: cell-based; details: Homo sapiens, one dose 10^-5 M, 48 h
[11] = tested on: SR; assay type: cell-based; details: Homo sapiens, one dose 10^-5 M, 48 h
[12] = tested on: HT29; assay type: cell-based; details: Homo sapiens, HT-29, one dose 10^-5 M, 48 h
[13] = tested on: MOLT-4; assay type: cell-based; details: Homo sapiens, one dose 10^-5 M, 48 h, read-out: % growth
[14] = tested on: OVCAR-4; assay type: cell-based; details: Homo sapiens, one dose 10^-5 M, 48 h
[15] = tested on: NCI-H23; assay type: cell-based; details: Homo sapiens, one dose 10^-5 M, 48 h, read-out: % growth
[16] = tested on: CAKI-1; assay type: cell-based; details: Homo sapiens, CAKI-1, 48 h, one dose 10^-5 M, 48 h
[17] = tested on: UACC-62; assay type: cell-based; details: Homo sapiens, one dose 10^-5 M, 48 h
[18] = tested on: SK-OV-3; assay type: cell-based; details: Homo sapiens, one dose 10^-5 M, 48 h
[19] = tested on: OVCAR-5; assay type: cell-based; details: Homo sapiens, one dose 10^-5 M, 48 h
[20] = tested on: A498; assay type: cell-based; details: Homo sapiens, one dose 10^-5 M, 48 h
[21] = tested on: M14; assay type: cell-based; details: Homo sapiens, one dose 10^-5 M, 48 h
[22] = tested on: CCRF-CEM; assay type: cell-based; details: Homo sapiens, one dose 10^-5 M, 48 h
[23] = tested on: KM12; assay type: cell-based; details: Homo sapiens, one dose 10^-5 M, 48 h
[24] = tested on: HOP-92; assay type: cell-based; details: Homo sapiens, one dose 10^-5 M, 48 h
[25] = tested on: SF-295; assay type: cell-based; details: Homo sapiens, one dose 10^-5 M, 48 h
[26] = tested on: DU-145; assay type: cell-based; details: Homo sapiens, one dose 10^-5 M, 48 h
[27] = tested on: MALME-3M; assay type: cell-based; details: Homo sapiens, one dose 10^-5 M, 48 h
[28] = tested on: U251; assay type: cell-based; details: Homo sapiens, U-251, one dose 10^-5 M, 48 h
[29] = tested on: IGROV1; assay type: cell-based; details: Homo sapiens, IGROV-1, one dose 10^-5 M, 48 h, read-out: % growth
[30] = tested on: UACC-257; assay type: cell-based; details: Homo sapiens, one dose 10^-5 M, 48 h
[31] = tested on: ACHN; assay type: cell-based; details: Homo sapiens, one dose 10^-5 M, 48 h
[32] = tested on: MDA-MB-468; assay type: cell-based; details: Homo sapiens, one dose 10^-5 M, 48 h
[33] = tested on: HOP-62; assay type: cell-based; details: Homo sapiens, one dose 10^-5 M, 48 h
[34] = tested on: HCC-2998; assay type: cell-based; details: Homo sapiens, one dose 10^-5 M, 48 h
[35] = tested on: TK-10; assay type: cell-based; details: Homo sapiens, one dose 10^-5 M, 48 h
[36] = tested on: K-562; assay type: cell-based; details: Homo sapiens, K562, one dose 10^-5 M, 48 h
[37] = tested on: NCI-H226; assay type: cell-based; details: Homo sapiens, one dose 10^-5 M, 48 h
[38] = tested on: SK-MEL-28; assay type: cell-based; details: Homo sapiens, one dose 10^-5 M, 48 h
[39] = tested on: OVCAR-3; assay type: cell-based; details: Homo sapiens, one dose 10^-5 M, 48 h
[40] = tested on: COLO 205; assay type: cell-based; details: Homo sapiens, one dose 10^-5 M, 48 h
[41] = tested on: BT-549; assay type: cell-based; details: Homo sapiens, one dose 10^-5 M, 48 h
[42] = tested on: OVCAR-8; assay type: cell-based; details: Homo sapiens, one dose 10^-5 M, 48 h
[43] = tested on: LOX IMVI; assay type: cell-based; details: Homo sapiens, one dose 10^-5 M, 48 h, read-out: % growth
[44] = tested on: NCI-H460; assay type: cell-based; details: Homo sapiens, one dose 10^-5 M, 48 h, read-out: % growth
[45] = tested on: PC-3; assay type: cell-based; details: Homo sapiens, one dose 10^-5 M, 48 h
[46] = tested on: SW-620; assay type: cell-based; details: Homo sapiens, one dose 10^-5 M, 48 h
[47] = tested on: NCI/ADR-RES; assay type: cell-based; details: Homo sapiens, one dose 10^-5 M, 48 h
[48] = tested on: HS 578T; assay type: cell-based; details: Homo sapiens; one dose 10^-5 M, 48 h; HS 578T; read-out: % growth
[49] = tested on: RXF 393; assay type: cell-based; details: Homo sapiens, RXF 393, 48 h, one dose 10^-5 M, 48 h, read-out: % growth
[50] = tested on: 786-0; assay type: cell-based; details: Homo sapiens, one dose 10^-5 M, 48 h
[51] = tested on: T-47D; assay type: cell-based; details: Homo sapiens, T47D, one dose 10^-5 M, 48 h, read-out: % growth
[52] = tested on: MCF7; assay type: cell-based; details: Homo sapiens, one dose 10^-5 M, 48 h, read-out: % growth
[53] = tested on: RPMI-8226; assay type: cell-based; details: Homo sapiens, one dose 10^-5 M, 48 h
[54] = tested on: EKVX; assay type: cell-based; details: Homo sapiens, one dose 10^-5 M, 48 h
[55] = tested on: A549/ATCC; assay type: cell-based; details: Homo sapiens, one dose 10^-5 M, 48 h
[56] = tested on: SK-MEL-5; assay type: cell-based; details: Homo sapiens, one dose 10^-5 M, 48 h, read-out: % growth
[57] = tested on: MDA-MB-435; assay type: cell-based; details: Homo sapiens, one dose 10^-5 M, 48 h, read-out: % growth
[58] = tested on: NCI-H522; assay type: cell-based; details: Homo sapiens, one dose 10^-5 M, 48 h
[59] = tested on: UO-31; assay type: cell-based; details: Homo sapiens, UO-31, 48 h, one dose 10^-5 M, 48 h
[60] = MTT cytotoxicity on normal cells; assay type: cell-based; details: human, WI-38 cells (normal lung fibroblasts), WI-38 normal cells, mean ± SD of three experiments, read-out: IC50 (cytotoxic activity)
Experimental: The American Type Culture Collection provided WI-38 cells (normal lung cells). The cells were grown in DMEM with 10% heat-inactivated FBS (Hyclone), 10 µg/ml of insulin (Sigma), and 1% penicillin-streptomycin. The remaining chemicals and reagents were all from Sigma or Invitrogen. The MTT test was used to evaluate cytotoxicity, as described previously. Graph pad Prism software (San Diego, CA) was used to estimate the 50% inhibitory concentration (IC50) from dose response curve graphic plots for each conc.

Nc1nc(S)nc(-c2ccc(Cl)cc2Cl)c1-c1ncn[nH]1 [Compound 5c, 4-Amino-6–(2,4-dichlorophenyl)-5-(1H-1,2,4-triazol-5-yl)pyrimidine-2-thiol]
% growth at 10 µM [1]: 104%
activity at 10 µM [2]: 102%
activity at 10 µM [3]: 100%
activity at 10 µM [4]: 97.1%
activity at 10 µM [5]: 97.8%
% growth at 10 µM [6]: 107%
% growth at 10 µM [7]: 101%
% growth at 10 µM [8]: 70.9%
activity at 10 µM [9]: 101%
% growth at 10 µM [10]: 104%
percent cell growth at 10 µM [11]: 83.2%
% growth at 10 µM [12]: 102%
activity at 10 µM [13]: 91.4%
% growth at 10 µM [14]: 105%
activity at 10 µM [15]: 105%
% growth at 10 µM [16]: 90.8%
% growth at 10 µM [17]: 95.3%
% growth at 10 µM [18]: 94.2%
percent cell growth at 10 µM [19]: 107%
% growth at 10 µM [20]: 120%
% growth at 10 µM [21]: 98.7%
% cell growth at 10 µM [22]: 92.7%
% growth at 10 µM [23]: 103%
% growth at 10 µM [24]: 106%
% cell growth at 10 µM [25]: 100%
% growth at 10 µM [26]: 112%
% growth at 10 µM [27]: 98.2%
% growth at 10 µM [28]: 105%
activity at 10 µM [29]: 102%
percent cell growth at 10 µM [30]: 112%
% growth at 10 µM [31]: 109%
percent cell growth at 10 µM [32]: 104%
% growth at 10 µM [33]: 93.9%
% growth at 10 µM [34]: 105%
% cell growth at 10 µM [35]: 114%
% growth at 10 µM [36]: 98%
% growth at 10 µM [37]: 110%
% cell growth at 10 µM [38]: 115%
% growth at 10 µM [39]: 109%
% growth at 10 µM [40]: 104%
% cell growth at 10 µM [41]: 97.3%
% growth of cells at 10 µM [42]: 103%
activity at 10 µM [43]: 104%
activity at 10 µM [44]: 108%
percent cell growth at 10 µM [45]: 95.8%
% growth at 10 µM [46]: 102%
cell growth percent at 10 µM [47]: 106%
activity at 10 µM [48]: 98.6%
activity at 10 µM [49]: 110%
% growth at 10 µM [50]: 90.7%
activity at 10 µM [51]: 106%
activity at 10 µM [52]: 94.1%
% growth at 10 µM [53]: 103%
% cell growth at 10 µM [54]: 50%
% growth at 10 µM [55]: 102%
activity at 10 µM [56]: 94.8%
activity at 10 µM [57]: 105%
% growth at 10 µM [58]: 88.8%
% cell growth at 10 µM [59]: 89.9%

C[C@H](Nc1ncnc2[nH]cnc12)c1cc2cccc(Cl)c2c(=O)n1-c1ccccc1 [Duvelisib]
IC50 [60]: 22.8 ± 0.65 µM
